Values joined by “and” are separate entries in the source; they are usually repeats but may differ in a detail not shown here. Identical values can stand only once. Like-named read-outs stand apart in the source and are kept apart here.
Tests used:
[1] = tested on: asialo-ovine submaxillary mucin; test: pH dependence of amaranthin/asialo-ovine submaxillary mucin precipitation; assay type: binding; conditions: 80 μg amaranthin, 5 μg asialo-ovine submaxillary mucin, universal buffer
Procedure: The pH dependence study utilized a 2-fold concentrate of a universal buffer system consisting of sodium citrate (24.6 mM), KH2 PO4 (28.7 mM) sodium barbitol (29.1 mM), boric acid (28.8 mM), and NaCl (209 mM), and was adjusted to the indicated pH values with 0.2 N NaOH or 0.2 N HCl. Water was added to complete the 2-fold dilution and the pH was recorded. Amaranthin and asialo-ovine submaxillary mucin solutions were prepared as concentrated solutions in 0.9% NaCI. A standard precipitation assay with amaranthin (80μg) and asialo-ovine submaxillary mucin (5 μg) was carried out using the universal buffer at the indicated pH.

[2] = tested on: human red blood cells (A, B, and O); test: Hemagglutination; assay type: cell-based
Procedure: In the hemagglutination procedure, red blood cells were washed and resuspended to make a 2% suspension in phosphate buffered saline. The lectin solution was serially diluted in microliter plates followed by the addition of the 2% red blood cell suspension. Hemagglutination was observed after 1 hour at room temperature. One hemagglutination unit (HU) is defined as the minimum amount of amaranthin to completely agglutinate cells and is equivalent to a lectin concentration of 2 μg/ml.

[3] = tested on: mucin purified from the LS174T xenograft; test: Solid phase enzyme-linked lectin-binding assay
Procedure: A solid phase enzyme-linked lectin-binding assay has been developed for ACA to quantitate lectin binding to solubilized glycoconjugates. ACA is more sensitive in the measurement of purified cancer-associated mucin than peanut lectin, and can detect as little as 1 mg of mucin purified from the LS174T xenograft.

HNPCC tissues = test: Lectin histochemistry, HNPCC rectal biopsies; assay type: binding, human; set-up: key to Staining (global score 0-3+): 4^+: Maximum labeling of the brown reaction product; 0: No staining of the slide compared to control sections; 1^+: trace or weak staining definitely not seen on control slides; 2+3^+: stronger staining, but definitely less than maximal; conditions: listed as ACA; for Weighted Average (0-400): mean ± SEM
Excerpt: Rectal biopsies were obtained from individuals who were first degree relatives of patients with hereditary nonpolyposis colorectal cancer (HNPCC) as identified by H. T. Lynch, M.D. These patients were the siblings or offspring of index patients who fit the criteria for Lynch Syndrome I or II. See Drzeniek, Z., and Usowska, E. (1979) Arch. Immunol Ther. Exp. 27, 253-262. However, since there is no definitive genetic or phenotypic marker for this familial syndrome, it is not possible to be certain that these patients represent a single homogenous genetic abnormality. The biopsies were fixed in formalin, and embedded in paraffin for tissue sectioning.
Four micron paraffin embedded tissue sections attached to glass slides were deparaffinized by serial incubations in xylene (twice), absolute ethanol (thrice), 95% ethanol, 70% ethanol, water and finally equilibrated in phosphate buffered saline (PBS), pH 7.0, containing 0.1% bovine serum albumin (BSA) commercially available from Sigma Corp of St. Louis, Mo. The slides were blotted dry adjacent to the tissue sections, and biotinylated lectin was added at a concentration of 10 μg/ml (for ACA) and 20 μg/ml (for PNA) in a quantity sufficient to completely cover the hydrated tissue (100-2001 μl). The lectin was rinsed off after a 30 minute incubation by eight 2-second dips into phosphate buffered saline. The slides were again blotted, and the tissue covered with Streptavidin-horseradish peroxidase (HRP) obtained from Zymed Laboratories, San Francisco, Calif. at a concentration of 10 μg/ml for 30 minutes. The slides were rinsed as mentioned above, and the pigmented reaction product developed by the addition of a freshly prepared chromogen reagent solution prepared within two hours of use as follows. […]
Therefore, each individual crypt of Lieberkuhn was given a score from 0-4^+, and the labeling was expressed as a "weighted average", or, the sum of scores from 100 crypts, which could range from 0 (all crypts not labeled) to 400 (all 100 crypts maximally labeled). […]

colonic adenocarcinoma = assay type: binding, human; set-up: key to Labeling of transitional mucosa: 4^+: Maximum labeling of the brown reaction product; 0: No staining of the slide compared to control sections; 1^+: trace or weak staining definitely not seen on control slides; 2+3^+: stronger staining, but definitely less than maximal
[4] = tested on: normal colonic epithelium; assay type: binding, human; set-up: key to Labeling of normal colon in the tissue survey / Staining (global score 0-3+): 4^+: Maximum labeling of the brown reaction product; 0: No staining of the slide compared to control sections; 1^+: trace or weak staining definitely not seen on control slides; 2+3^+: stronger staining, but definitely less than maximal
[5] = biotinylated ACA 10 μg/mL or PNA 20 μg/mL

Substance: amaranthin
- pH at or below which almost no precipitate formed [1]: ≤ 3 pH
- pH of peak precipitation activity [1]: 5 pH
- pH range of significant amaranthin activity [1]: 4-9 pH
- agglutination of A, B, O red blood cells, in words [2]: does and No difference was observed
- minimum amount to completely agglutinate cells (one HU) ([2]; 2% red blood cell suspension, 1 hour at room temperature): 2 µg/mL
- smallest amount of mucin detected [3]: 1 mg
- Weighted Average (0-400) (HNPCC tissues; HNPCC outliers): 203±43
- Weighted Average (0-400) (HNPCC tissues; HNPCC): 74±70
- Staining (global score 0-3+) (HNPCC tissues; [5]): 1^+
- Effect of Newcastle disease virus neuraminidase on labeling (colonic adenocarcinoma; cancer specimens): Neither sialidase enhanced labeling
- Effect of V. Cholerae neuraminidase on labeling (colonic adenocarcinoma; cancer specimens): Neither sialidase enhanced labeling
- Percent of Epithelial Units Labeled (colonic adenocarcinoma; malignant glands, mean ± SEM, listed as ACA): 97±2% and 97%±2%
- Labeling of transitional mucosa (colonic adenocarcinoma; mucosa adjacent to colonic cancer, upper and lower crypt region): 1^+
- Labeling of normal colon in the tissue survey [4]: 1^+
- Staining (global score 0-3+) [4, 5]: 1^+
- Percent of Epithelial Units Labeled ([4]; lower half of crypt, mean ± SEM, listed as ACA): 46±4% and 46%±4%
- Weighted Average (0-400) ([4]; sum of scores of 100 epithelial units, mean ± SEM, listed as ACA): 65±33
- Percent of Epithelial Units Labeled ([4]; upper half of crypt, mean ± SEM, listed as ACA): 7±2% and 7%±2%

— patent US6084072A, “Purified lectin and methods of use” (The Regents of the University of Michigan, priority 1993, dated 2000)
